In assay [1] the test system is A2.DR1 mice. The assay is described as follows: Flow cytometry detection of peptide-specific CD8 T-cells with HLA-A2 dextramer after vaccination of A2.DR1 mice. Format: in vivo. The note with it: splenocytes after vaccination in Montanide, gated on CD45+ CD3+ cells. An excerpt:
(§1) Numbers of spots to MOG35-55 as negative control were subtracted. Mean+/−s.e.m. of n=4 mice per group and representative ELISpots are shown. **p<0.01. (B/C): H3.3-peptide libraries are used to assess MHC binding epitopes in silico: MHC peptide binding predictions for H3.3 K27M (red)- and K27 wt (blue)-containing 10-mer peptides to HLA-A*02:01 using NetMHC algorithm (B) and MHC peptide binding analysis for H3.3 K27M26-35 (red) or K27 wt26-35 (blue) depending on MHC-class-I haplotype (C). Peptides with logscore affinity >0.4 are defined as potential binders. […] Re-stimulation with the vehicle DMSO served as control; gated on CD45+ CD3+ CD8+ cells.
(§2) As antigen presentation and induction of an effective immune response is critically dependent on MHC haplotype, binding affinities of K27M26-35 to the most frequent class I haplotypes were analyzed. […] Thus, anti-tumor efficacy of H3.3 K27M peptide vaccination was further investigated in a syngeneic HLA-A*02 tumor model.

The subject of assay [2] is A2.DR1 mice. Nature of the assay: Intracellular flow cytometry of splenocyte IFNγ responses after vaccination of A2.DR1 mice. Format: in vivo. The note with it: for IFNγ+ CD8+ T-cell response (intracellular flow cytometry): vaccination with peptide in Montanide, re-stimulation with K27M26-35 or K27 wt26-35, gated on CD45+ CD3+ CD8+ cells.
Source text: as §1, §2
Background: In flow cytometry, cells or beads pass a laser one at a time.

The values that follow come from US11767352B2, “Histone anti-cancer vaccines” (DEUTSCHES KREBSFORSCHUNGSZENTRUM, priority 2015, dated 2023).

Regarding “RMSAPSTGGV (listed as Homo sapiens) [K27M26-35, peptide corresponding to amino acids 26-35 of K27M Histone H3.3]”, the “peptide-specific CD8+ T-cells detected with HLA-A2 dextramer” value is “could be detected directly” in assay [1] and “CD8-positive T-cells are detected with HLA-A2 multimers” in assay [1] (listed as H3.3 K27M26-35). The “immune response, HLA-A*02 restricted (summary statement)” value in assay [2] (according to the examples) is given as “surprisingly strong immune response”. The entries for the “IFNγ+ CD8+ T-cell response (intracellular flow cytometry)” value in assay [2] and in assay [2] (listed as H3.3 K27M26-35) were “induced IFNγ^+CD8^+-driven mutation-specific cytotoxic T-cell responses” and “induces a mutation-specific CD8-driven T-cell response”, respectively.
